Marks after values point to notes of the source that are not given here.
Assay: Safety and tolerability: adverse events, dose-limiting toxicities, MTD, RP2D (Phase 1A/1B)
Assay type: in vivo
Protocol: This was an open-label, Phase 1, dose-escalation/dose-expansion study, conducted across six study centres in Australia. The dose-escalation phase evaluated twice-daily (BID) and once-daily (QD) dosing, and the dose-expansion phase evaluated the BID RP2D from the dose-escalation phase and food effects (Fig. 1). The food-effects cohort comprised two sequences: fast followed by fed (sequence 1) and fed followed by fast (sequence 2). […] The decision to proceed to the next dose cohort was determined by the Safety Monitoring Committee and followed a modified 3 + 3 escalation scheme. […] When ≥2 DLTs occurred in the first 23 days of a dose level, the next lower dose level was declared the MTD. Safety was monitored and DLTs were assessed in all dose cohorts. […] The food-effects cohort investigated the effects of food on the PK of pamiparib in patients with advanced solid tumours.
The QD dosing regimen was added as an amendment to the protocol with the purpose of exploring the feasibility of a more convenient regimen.
Safety and tolerability were assessed throughout the study by monitoring adverse events (AEs), serious AEs, clinical laboratory measurements and physical examinations. Adverse events were categorised according to their severity (National Cancer Institute Common Terminology Criteria for Adverse Events v4.03) and relationship to the study treatment.

In the case of C[C@]12CCCN1CC1=NNC(=O)c3cc(F)cc4[nH]c2c1c34 [pamiparib], the “Ascites, AE of any grade” value (20 mg BID (n = 3)) is reported as 0 (0.0) n (%), the “Back pain, AE of any grade” value (20 mg BID (n = 3)) is reported as 0 (0.0) n (%) and the “Constipation, AE of any grade” value (20 mg BID (n = 3)) is reported as 0 (0.0) n (%). For the same compound, the “Cough, AE of any grade” value (20 mg BID (n = 3)) was 0 (0.0) n (%), the “Decreased appetite, AE of any grade” value (20 mg BID (n = 3)) was 0 (0.0) n (%) and the “Diarrhoea, AE of any grade” value (20 mg BID (n = 3)) was 2 (66.7) n (%). The Dose-limiting toxicity (20 mg BID (n = 3)) was 0 (0.0) n (%), the “Dyspnoea, AE of any grade” value (20 mg BID (n = 3)) was 1 (33.3) n (%) and the “Fatigue, AE of any grade” value (20 mg BID (n = 3)) was 3 (100.0) n (%). The “Headache, AE of any grade” value (20 mg BID (n = 3)) was 1 (33.3) n (%), the “Hypoalbuminemia, AE of any grade” value (20 mg BID (n = 3)) was 0 (0.0) n (%) and the “Hypomagnesemia, AE of any grade” value (20 mg BID (n = 3)) was 1 (33.3) n (%). The “Hypophosphatemia, AE of any grade” value (20 mg BID (n = 3)) was 0 (0.0) n (%), the “Increased AST, AE of any grade” value (20 mg BID (n = 3)) was 0 (0.0) n (%) and the “Muscle spasms, AE of any grade” value (20 mg BID (n = 3)) was 0 (0.0) n (%). The “Nausea, AE of any grade” value (20 mg BID (n = 3)) was 2 (66.7) n (%), the “Neutropenia, AE of any grade” value (20 mg BID (n = 3)) was 0 (0.0) n (%) and the “Non-cardiac chest pain, AE of any grade” value (20 mg BID (n = 3)) was 0 (0.0) n (%). For the same compound, the “Pain in extremity, AE of any grade” value (20 mg BID (n = 3)) was 1 (33.3) n (%), the “Peripheral sensory neuropathy, AE of any grade” value (20 mg BID (n = 3)) was 1 (33.3) n (%) and the “Pleural effusion, AE of any grade” value (20 mg BID (n = 3)) was 0 (0.0) n (%). For the same compound, the “Pyrexia, AE of any grade” value (20 mg BID (n = 3)) was 0 (0.0) n (%), the “Treatment-emergent AE” value (20 mg BID (n = 3)) was 3 (100.0) n (%) and the “Treatment-emergent AE: Grade 3 or higher” value (20 mg BID (n = 3)) was 1 (33.3) n (%). The “Treatment-emergent AE: Leading to death” value (20 mg BID (n = 3)) was 0 (0.0) n (%), the “Treatment-emergent AE: Leading to dose interruption” value (20 mg BID (n = 3)) was 3 (100.0) n (%) and the “Treatment-emergent AE: Leading to dose modification” value (20 mg BID (n = 3)) was 3 (100.0) n (%). For the same compound, the “Treatment-emergent AE: Leading to dose reduction” value (20 mg BID (n = 3)) was 1 (33.3) n (%), the “Treatment-emergent AE: Leading to treatment discontinuation” value (20 mg BID (n = 3)) was 0 (0.0) n (%) and the “Treatment-emergent AE: Serious” value (20 mg BID (n = 3)) was 1 (33.3) n (%). The “Treatment-related AE” value (20 mg BID (n = 3)) was 3 (100.0) n (%), the “Treatment-related AE: Grade 3 or higher” value (20 mg BID (n = 3)) was 1 (33.3) n (%) and the “Treatment-related AE: Leading to death” value (20 mg BID (n = 3)) was 0 (0.0) n (%). For the same compound, the “Treatment-related AE: Leading to dose interruption” value (20 mg BID (n = 3)) was 1 (33.3) n (%), the “Treatment-related AE: Leading to dose modification” value (20 mg BID (n = 3)) was 1 (33.3) n (%) and the “Treatment-related AE: Leading to dose reduction” value (20 mg BID (n = 3)) was 1 (33.3) n (%). For the same compound, the “Treatment-related AE: Leading to treatment discontinuation” value (20 mg BID (n = 3)) was 0 (0.0) n (%), the “Treatment-related AE: Serious” value (20 mg BID (n = 3)) was 0 (0.0) n (%) and the “Upper respiratory tract infection, AE of any grade” value (20 mg BID (n = 3)) was 0 (0.0) n (%). For the same compound, the “Urinary tract infection, AE of any grade” value (20 mg BID (n = 3)) was 1 (33.3) n (%), the “Vomiting, AE of any grade” value (20 mg BID (n = 3)) was 2 (66.7) n (%) and the “Abdominal pain, AE of any grade” value (40 mg BID (n = 6)) was 0 (0.0) n (%). The “Anaemia, AE of any grade” value (40 mg BID (n = 6)) was 2 (33.3) n (%), the “Ascites, AE of any grade” value (40 mg BID (n = 6)) was 1 (16.7) n (%) and the “Back pain, AE of any grade” value (40 mg BID (n = 6)) was 2 (33.3) n (%). The “Constipation, AE of any grade” value (40 mg BID (n = 6)) was 1 (16.7) n (%), the “Cough, AE of any grade” value (40 mg BID (n = 6)) was 0 (0.0) n (%) and the “Decreased appetite, AE of any grade” value (40 mg BID (n = 6)) was 0 (0.0) n (%). For the same compound, the “Diarrhoea, AE of any grade” value (40 mg BID (n = 6)) was 2 (33.3) n (%), the Dose-limiting toxicity (40 mg BID (n = 6)) was 1 (16.7)^a n (%) and the “Dyspnoea, AE of any grade” value (40 mg BID (n = 6)) was 0 (0.0) n (%). For the same compound, the “Fatigue, AE of any grade” value (40 mg BID (n = 6)) was 2 (33.3) n (%), the “Headache, AE of any grade” value (40 mg BID (n = 6)) was 2 (33.3) n (%) and the “Hypoalbuminemia, AE of any grade” value (40 mg BID (n = 6)) was 0 (0.0) n (%). The “Hypomagnesemia, AE of any grade” value (40 mg BID (n = 6)) was 0 (0.0) n (%), the “Hypophosphatemia, AE of any grade” value (40 mg BID (n = 6)) was 1 (16.7) n (%) and the “Increased AST, AE of any grade” value (40 mg BID (n = 6)) was 1 (16.7) n (%). The “Muscle spasms, AE of any grade” value (40 mg BID (n = 6)) was 0 (0.0) n (%), the “Nausea, AE of any grade” value (40 mg BID (n = 6)) was 5 (83.3) n (%) and the “Neutropenia, AE of any grade” value (40 mg BID (n = 6)) was 2 (33.3) n (%). The “Non-cardiac chest pain, AE of any grade” value (40 mg BID (n = 6)) was 0 (0.0) n (%), the “Pain in extremity, AE of any grade” value (40 mg BID (n = 6)) was 0 (0.0) n (%) and the “Peripheral sensory neuropathy, AE of any grade” value (40 mg BID (n = 6)) was 0 (0.0) n (%). For the same compound, the “Pleural effusion, AE of any grade” value (40 mg BID (n = 6)) was 0 (0.0) n (%), the “Pyrexia, AE of any grade” value (40 mg BID (n = 6)) was 0 (0.0) n (%) and the “Treatment-emergent AE” value (40 mg BID (n = 6)) was 6 (100.0) n (%).

— PMC8854719, “Phase 1A/1B dose-escalation and -expansion study to evaluate the safety, pharmacokinetics, food effects and antitumor activity of pamiparib in advanced solid tumours” (British Journal of Cancer, 2021)
